Source: patent US20100261765A1, “MINERALOCORTICOID RECEPTOR MODULATORS” (priority 2007, published 2010)
Where two headings read alike, the source gives them in different places.

Assays:
Cav1.2 = target: T1, Cav1.2 (Homo sapiens, UniProt Q13936); assay: Calcium channel block, FLIPR TETRA fluorescence assay in HEK293 cells expressing L-type calcium channels; assay type: cell-based; details: pH 7.2, 25 mM potassium; for inhibition at 30 min, 0.3 μM: 0.3 μM compound, read-out: FLIPRIETRA Cav1.2 % Inhibition 0.3 μM; for inhibition at 30 min, 1 μM: 1 μm compound, read-out: FLIPRIETRA Cav1.2 % Inhibition 1 μm; for inhibition at 30 min, 3 μM: 3 μm compound, read-out: FLIPRIETRA Cav1.2 % Inhibition 3 μm; for inhibition at 30 min, 10 μM: 10 μm compound, read-out: FLIPRIETRA Cav1.2 % Inhibition 10 μm; for inhibition at 30 min, 30 μM: 30 μm compound, read-out: FLIPRIETRA Cav1.2 % Inhibition 30 μm
T1 construct: expressed in transfected cells; host or cells: HEK293 cell line (Xia, et al., 2004) also expressing Kir2.3
T1 sequence (Q13936 whole entry): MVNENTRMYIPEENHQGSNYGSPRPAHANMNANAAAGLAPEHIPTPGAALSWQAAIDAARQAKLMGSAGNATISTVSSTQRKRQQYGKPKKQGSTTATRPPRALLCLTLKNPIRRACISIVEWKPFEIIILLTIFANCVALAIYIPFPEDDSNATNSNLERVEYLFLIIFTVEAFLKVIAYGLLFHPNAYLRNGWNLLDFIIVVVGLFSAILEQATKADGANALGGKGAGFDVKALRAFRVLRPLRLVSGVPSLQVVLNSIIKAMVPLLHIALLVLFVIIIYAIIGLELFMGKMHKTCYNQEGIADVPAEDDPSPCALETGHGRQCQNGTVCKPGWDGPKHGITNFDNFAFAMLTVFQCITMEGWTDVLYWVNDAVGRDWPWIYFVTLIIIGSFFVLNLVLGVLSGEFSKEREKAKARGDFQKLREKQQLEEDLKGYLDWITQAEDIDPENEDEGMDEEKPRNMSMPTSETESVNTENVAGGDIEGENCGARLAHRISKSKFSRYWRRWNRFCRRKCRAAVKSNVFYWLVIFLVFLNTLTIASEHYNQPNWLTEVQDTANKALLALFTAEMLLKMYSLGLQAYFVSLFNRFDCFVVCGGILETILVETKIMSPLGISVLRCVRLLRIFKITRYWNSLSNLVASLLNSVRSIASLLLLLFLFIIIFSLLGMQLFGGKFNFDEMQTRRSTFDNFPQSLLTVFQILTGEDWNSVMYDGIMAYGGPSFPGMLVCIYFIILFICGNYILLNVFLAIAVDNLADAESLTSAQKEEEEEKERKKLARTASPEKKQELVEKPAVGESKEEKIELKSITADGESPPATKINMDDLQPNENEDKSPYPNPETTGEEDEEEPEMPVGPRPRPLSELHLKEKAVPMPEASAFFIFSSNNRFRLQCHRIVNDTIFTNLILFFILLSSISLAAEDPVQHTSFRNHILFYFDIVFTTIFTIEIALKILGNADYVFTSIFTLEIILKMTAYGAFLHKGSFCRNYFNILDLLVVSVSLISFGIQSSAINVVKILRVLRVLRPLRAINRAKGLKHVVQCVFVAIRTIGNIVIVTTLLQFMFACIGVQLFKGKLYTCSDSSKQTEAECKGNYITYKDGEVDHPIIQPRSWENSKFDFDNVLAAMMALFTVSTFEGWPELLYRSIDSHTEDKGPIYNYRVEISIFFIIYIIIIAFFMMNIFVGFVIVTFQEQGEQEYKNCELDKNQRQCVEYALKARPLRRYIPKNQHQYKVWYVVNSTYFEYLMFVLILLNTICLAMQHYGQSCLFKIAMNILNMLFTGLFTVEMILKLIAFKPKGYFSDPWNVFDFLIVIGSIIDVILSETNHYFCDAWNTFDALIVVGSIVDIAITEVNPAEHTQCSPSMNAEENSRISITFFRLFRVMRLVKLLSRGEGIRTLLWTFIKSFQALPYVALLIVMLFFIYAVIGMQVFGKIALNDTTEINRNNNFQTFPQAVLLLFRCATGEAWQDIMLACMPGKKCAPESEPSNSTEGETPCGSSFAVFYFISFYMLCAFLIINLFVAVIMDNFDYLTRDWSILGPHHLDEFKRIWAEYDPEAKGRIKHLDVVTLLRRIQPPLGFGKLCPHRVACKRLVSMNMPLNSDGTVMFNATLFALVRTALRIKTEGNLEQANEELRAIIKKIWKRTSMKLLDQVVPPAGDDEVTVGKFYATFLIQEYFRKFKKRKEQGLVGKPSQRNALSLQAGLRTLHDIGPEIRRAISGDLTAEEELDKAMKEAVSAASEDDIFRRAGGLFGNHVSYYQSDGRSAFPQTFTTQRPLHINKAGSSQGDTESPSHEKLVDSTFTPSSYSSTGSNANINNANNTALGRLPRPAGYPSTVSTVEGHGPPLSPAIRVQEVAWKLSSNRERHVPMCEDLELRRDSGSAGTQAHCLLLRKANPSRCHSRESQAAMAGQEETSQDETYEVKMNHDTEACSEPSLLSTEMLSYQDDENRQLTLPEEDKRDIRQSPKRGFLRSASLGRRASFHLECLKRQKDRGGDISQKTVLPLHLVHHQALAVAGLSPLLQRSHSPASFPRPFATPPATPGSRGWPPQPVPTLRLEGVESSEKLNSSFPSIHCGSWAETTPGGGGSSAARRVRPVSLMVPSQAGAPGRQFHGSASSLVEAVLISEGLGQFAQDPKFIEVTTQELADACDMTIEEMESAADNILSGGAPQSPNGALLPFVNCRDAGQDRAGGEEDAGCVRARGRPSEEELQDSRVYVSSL
T1 sequence (P54289 25-946 partner limits assumed): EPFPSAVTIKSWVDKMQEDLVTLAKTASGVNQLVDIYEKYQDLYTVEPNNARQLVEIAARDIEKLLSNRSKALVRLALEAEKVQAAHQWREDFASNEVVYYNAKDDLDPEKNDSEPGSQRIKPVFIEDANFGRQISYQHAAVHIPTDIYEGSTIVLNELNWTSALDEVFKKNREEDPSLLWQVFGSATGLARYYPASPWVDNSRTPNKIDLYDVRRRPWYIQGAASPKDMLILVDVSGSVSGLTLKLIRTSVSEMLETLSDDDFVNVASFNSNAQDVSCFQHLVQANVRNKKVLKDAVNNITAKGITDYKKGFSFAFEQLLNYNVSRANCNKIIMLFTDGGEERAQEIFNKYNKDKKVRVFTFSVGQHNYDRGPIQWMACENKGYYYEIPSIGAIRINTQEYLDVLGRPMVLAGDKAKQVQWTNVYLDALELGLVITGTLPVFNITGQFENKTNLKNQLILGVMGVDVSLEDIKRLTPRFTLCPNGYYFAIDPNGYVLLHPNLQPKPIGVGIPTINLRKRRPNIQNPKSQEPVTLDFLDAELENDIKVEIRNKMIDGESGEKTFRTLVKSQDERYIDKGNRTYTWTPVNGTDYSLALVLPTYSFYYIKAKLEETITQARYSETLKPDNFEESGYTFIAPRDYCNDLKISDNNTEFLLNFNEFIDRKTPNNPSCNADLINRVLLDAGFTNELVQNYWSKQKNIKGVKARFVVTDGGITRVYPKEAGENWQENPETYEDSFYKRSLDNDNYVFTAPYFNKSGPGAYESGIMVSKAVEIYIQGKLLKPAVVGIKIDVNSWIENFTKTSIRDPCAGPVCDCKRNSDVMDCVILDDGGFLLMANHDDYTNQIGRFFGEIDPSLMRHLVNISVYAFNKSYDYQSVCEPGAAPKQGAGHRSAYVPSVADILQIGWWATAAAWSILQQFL
T1 sequence (P54289 947-1103 partner limits assumed): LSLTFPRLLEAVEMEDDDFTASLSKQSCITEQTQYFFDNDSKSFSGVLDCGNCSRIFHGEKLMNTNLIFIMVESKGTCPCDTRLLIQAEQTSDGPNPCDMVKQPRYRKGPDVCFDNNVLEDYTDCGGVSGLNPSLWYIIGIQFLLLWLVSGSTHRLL
T1 sequence (Q08289 whole entry partner): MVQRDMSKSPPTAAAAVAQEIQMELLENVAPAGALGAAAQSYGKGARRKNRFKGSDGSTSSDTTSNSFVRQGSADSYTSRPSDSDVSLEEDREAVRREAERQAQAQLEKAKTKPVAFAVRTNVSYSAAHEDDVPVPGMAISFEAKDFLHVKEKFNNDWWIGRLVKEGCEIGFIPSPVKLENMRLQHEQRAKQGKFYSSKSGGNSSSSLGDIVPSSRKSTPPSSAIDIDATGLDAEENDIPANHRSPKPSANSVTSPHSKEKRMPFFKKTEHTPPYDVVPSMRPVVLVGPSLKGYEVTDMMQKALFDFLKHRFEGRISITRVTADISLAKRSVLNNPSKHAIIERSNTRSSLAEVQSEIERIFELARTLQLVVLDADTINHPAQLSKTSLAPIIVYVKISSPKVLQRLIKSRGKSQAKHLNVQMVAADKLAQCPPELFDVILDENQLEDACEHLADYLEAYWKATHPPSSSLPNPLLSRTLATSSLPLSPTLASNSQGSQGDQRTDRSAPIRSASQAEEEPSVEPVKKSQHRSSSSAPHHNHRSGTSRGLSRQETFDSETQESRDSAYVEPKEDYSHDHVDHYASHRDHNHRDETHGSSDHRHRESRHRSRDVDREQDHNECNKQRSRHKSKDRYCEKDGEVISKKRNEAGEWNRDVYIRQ
Method: Measurement of Calcium Channel Block
A high-throughput fluorescence assay for state-dependent block of L-type channels was established as a counterscreen for blockers of N-type calcium channels. […] This allows the cell membrane potential to be preset during compound incubation, which can be used to assay state-dependent channel block. Running the assay in the presence of high potassium (25 mM) sets the membrane potential to a value (−35 mV) at which approximately half of the calcium channels are inactivated and some are open. This condition favors block by many L-type calcium channel blockers that lower blood pressure, including dihydropyridines, phenylalkylamines and benzothiazepines.
Initially, the compounds were incubated in 0.005 μM calcium and 25 mM potassium for 30 minutes. Calcium influx was triggered by buffer addition that raises the calcium concentration to 2 mM while maintaining the potassium concentration at 25 mM. Changes in intracellular calcium were then monitored using a calcium-sensitive fluorescent dye (fluo-4) and a FLIPR^TETRA plate reader.
The following experimental protocol was used:
1. Cells were seeded in a Poly-D-Lysine Coated 384-well plate (50 μl/well) and incubated overnight at 37° C. under 10% CO2;
4. Cells were then incubated in the dark at 25° C. for 30 minutes;
5. […] 25 mM KCl, 0.005 mM CaCl2, 1.7 mM MgCl2, 10 HEPES, pH=7.2;
6. 0.025 ml of 25 mM K PPB was then added, with or without the presence of a test compound;
7. Cells incubated in the dark at 25° C. for 30 min
8. Cell plates are then read on the FLIPR^TETRA instrument, Excitation=480 nm, Emission=535 nm;

[1] = target: T2, recombinant rhesus mineralocorticoid receptor (Macaca mulatta, UniProt A0A5F8ATS5); assay: Mineralocorticoid receptor binding affinity, [3H]-aldosterone filter binding assay
T2 construct: made in house; host or cells: insect cells infected with recombinant baculovirus; clarified lysate used
T2 sequence (A0A5F8ATS5 1-984): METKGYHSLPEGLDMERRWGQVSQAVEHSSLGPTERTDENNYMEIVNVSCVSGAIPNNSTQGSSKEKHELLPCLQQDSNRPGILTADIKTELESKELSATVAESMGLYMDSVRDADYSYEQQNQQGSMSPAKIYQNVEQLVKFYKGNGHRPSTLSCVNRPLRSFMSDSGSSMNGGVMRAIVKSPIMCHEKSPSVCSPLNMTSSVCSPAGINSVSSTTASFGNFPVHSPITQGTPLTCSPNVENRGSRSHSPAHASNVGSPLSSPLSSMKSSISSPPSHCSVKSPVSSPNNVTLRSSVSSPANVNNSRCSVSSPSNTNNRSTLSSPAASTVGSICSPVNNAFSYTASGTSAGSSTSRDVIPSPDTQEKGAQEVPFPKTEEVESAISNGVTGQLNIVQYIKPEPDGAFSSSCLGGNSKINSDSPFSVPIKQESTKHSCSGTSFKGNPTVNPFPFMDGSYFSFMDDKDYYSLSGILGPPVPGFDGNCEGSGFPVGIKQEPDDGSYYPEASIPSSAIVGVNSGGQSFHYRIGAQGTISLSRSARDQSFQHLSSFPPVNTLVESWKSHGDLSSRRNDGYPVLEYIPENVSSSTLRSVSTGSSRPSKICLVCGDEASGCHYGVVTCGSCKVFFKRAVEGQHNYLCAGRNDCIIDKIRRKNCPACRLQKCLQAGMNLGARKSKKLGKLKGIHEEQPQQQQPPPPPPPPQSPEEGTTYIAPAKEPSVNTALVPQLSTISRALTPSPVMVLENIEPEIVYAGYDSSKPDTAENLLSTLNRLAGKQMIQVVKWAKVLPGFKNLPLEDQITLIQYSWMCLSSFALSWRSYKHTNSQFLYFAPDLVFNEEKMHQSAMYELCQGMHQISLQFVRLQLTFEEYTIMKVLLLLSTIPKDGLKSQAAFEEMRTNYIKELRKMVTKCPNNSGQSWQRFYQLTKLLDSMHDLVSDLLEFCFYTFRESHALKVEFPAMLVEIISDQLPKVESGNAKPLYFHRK
Method: Measurement of Mineralocorticoid Receptor Binding Affinity
The binding affinity of compounds for the mineralocorticoid receptor was determined by measuring their ability to prevent binding of radiolabeled aldosterone to recombinant rhesus mineralocorticoid receptor in a traditional filter binding assay protocol.
Rhesus mineralocorticoid receptor cDNA was cloned from a cDNA library using and used to prepare a recombinant baculovirus encoding the rhesus mineralocorticoid receptor coding sequence by standard molecular biological and cell biological methods. […] Cells were collected and lysed. The lysates were clarified by centrifugation and stored at −80 C until use in the radioligand binding assay.
[^3H]-Aldosterone (1 mCi/ml, 70-100 Ci/mmol) was purchased from Perkin Elmer (NET419). Test compounds were dissolved in DMSO and diluted in DMSO to 50 times the desired final concentrations for 3-fold serial dilution dose response curves. […] The insect cell lysate containing rhesus mineralocorticoid receptor was thawed and diluted to 0.7 mg protein/mL. Assay were started by combining 20 μL of test compound solution, 920 μL of diluted insect cell lysate, and 60 μL of [^3H]-aldosterone working solution in 2-mL 96-well polypropylene square well plates (USA Scientific) at 20° C. The mixture was incubated for 3 hr with continuous agitation on a platform shaker. […] The filter plate was washed 3 times with 0.5 mL of 50 mM Tris-HCl, pH 7.4 and then dried overnight at 37° C. in a vacuum oven. […] Non-specific radioligand binding was determined by adding non-radiolabeled aldosterone (0.5 mM in DMSO) to the assay mixture to a final concentration of 10 μM in place of test compound. IC50 and Ki values were determined using a four parameter logistic fit using a customized assay data analyzer software package.

[2] = tested on: patients suffering from advanced CHF; details: in combination with standard CHF therapy; cited from earlier work
[3] = average of Rep#1 and Rep#2, read-out: MRBIND Ki (nM) Average
[4] = replicate 1, read-out: MRBIND Ki (nM) Rep#1
[5] = replicate 2, read-out: MRBIND Ki (nM) Rep#2

Row | Structure (SMILES) | inhibition at 30 min, 0.3 μM (Cav1.2) [%] | inhibition at 30 min, 1 μM (Cav1.2) [%] | inhibition at 30 min, 3 μM (Cav1.2) [%] | inhibition at 30 min, 10 μM (Cav1.2) [%] | Ki [1, 3] [nM] | Ki [1, 4] [nM] | Ki [1, 5] [nM] | inhibition at 30 min, 30 μM (Cav1.2) [%] | reduction of cardiac related mortality [2] [%] | reduction of frequency of hospitalization [2] [%]
1 | C=CCOC(=O)C1=C(C)NC(C)=C(C(=O)OCC=C)C1c1cccc([N+](=O)[O-])c1 [diallyl 2,6-dimethyl-4-(3-nitrophenyl)-1,4-dihydropyridine-3,5-dicarboxylate] | 81 | 83 | 82 | 81 | 462 | 472 | 453 | – | – | –
2 | C=Cc1ccccc1C1C(C(=O)OC)=C(C)NC(C)=C1C(=O)OC [dimethyl 2,6-dimethyl-4-(2-vinylphenyl)-1,4-dihydropyridine-3,5-dicarboxylate] | 74 | 74 | 78 | 87 | 489 | 570 | 408 | – | – | –
3 | COC(=O)C1=C(C)NC(C)=C(C(=O)OC)C1c1cccc2ccccc12 [Dimethyl 2,6-dimethyl-4-(1-naphthyl)-1,4-dihydropyridine-3,5-dicarboxylate] | 80 | 88 | 94 | 100 | 61 | 69 | 53 | 104 | – | –
4 | CCOC(=O)C1=C(C)NC(C)=C(C(=O)OC(C)C)C1c1ccc([N+](=O)[O-])cc1 (centres unmarked) [ethyl isopropyl 2,6-dimethyl-4-(4-nitrophenyl)-1,4-dihydropyridine-3,5-dicarboxylate] | 28 | 49 | 63 | 73 | 114 | 77 | 152 | 86 | – | –
5 | COc1ccccc1NC(=O)C1=C(C)NC(SC)=C(C#N)C1c1ccccc1Cl (centres unmarked) [4-(2-chlorophenyl)-5-cyano-N-(2-methoxyphenyl)-2-methyl-6-(methylthio)-1,4-dihydropyridine-3-carboxamide] | -3 | 14 | 35 | 74 | 193 | 250 | 137 | – | – | –
6 | CCOC(=O)C1=C(C)NC(C)=C(C(=O)OCC)C1c1ccc([N+](=O)[O-])cc1 [diethyl 2,6-dimethyl-4-(4-nitrophenyl)-1,4-dihydropyridine-3,5-dicarboxylate] | 25 | 43 | 59 | 76 | 219 | 184 | 254 | – | – | –
7 | CCCC1=C(C(=O)OCC)C(c2ccccc2Cl)C(C#N)=C(SC)N1 (centres unmarked) [ethyl 4-(2-chlorophenyl)-5-cyano-6-(methylthio)-2-propyl-1,4-dihydropyridine-3-carboxylate] | 53 | 73 | 74 | 80 | 37.3 | 23.6 | 51 | – | – | –
8 | COC(=O)C1=C(C)NC(C)=C(C(=O)OC)C1c1ccc(Cl)c(Cl)c1 [dimethyl 4-(3,4-dichlorophenyl)-2,6-dimethyl-1,4-dihydropyridine-3,5-dicarboxylate] | 34 | 59 | 77 | 87 | 203 | 83 | 324 | 89 | – | –
9 | CCCSC1=C(C#N)C(c2ccccc2Cl)C(C(=O)Nc2ccccc2OC)=C(C)N1 (centres unmarked) [4-(2-chlorophenyl)-5-cyano-N-(2-methoxyphenyl)-2-methyl-6-(propylthio)-1,4-dihydropyridine-3-carboxamide] | 31 | 69 | 90 | 96 | 14.9 | 11.6 | 18.2 | 102 | – | –
10 | COC(=O)C1=C(C)NC(C)=C(C(=O)OC)C1c1cccc(Cl)c1Cl [dimethyl 4-(2,3-dichlorophenyl)-2,6-dimethyl-1,4-dihydropyridine-3,5-dicarboxylate] | 73 | 75 | 77 | 78 | 375 | 382 | 368 | 84 | – | –
11 | CC(=O)S[C@@H]1CC2=CC(=O)CC[C@]2(C)[C@H]2CC[C@@]3(C)[C@@H](CC[C@@]34CCC(=O)O4)[C@H]12 [spironolactone] | – | – | – | – | – | – | – | – | 30 | 33
12 | CCOc1ccccc1C1C(C#N)=C(SC)NC(C)=C1C(=O)Nc1ccccc1 (centres unmarked) [5-cyano-4-(2-ethoxyphenyl)-2-methyl-6-(methylthio)-N-phenyl-1,4-dihydropyridine-3-carboxamide] | 4 | 26 | 55 | 82 | 1390 | 1140 | 1650 | – | – | –
13 | CCSC1=C(C#N)C(c2ccccc2Cl)C(C(=O)Nc2ccccc2OC)=C(C)N1 (centres unmarked) [4-(2-chlorophenyl)-5-cyano-6-(ethylthio)-N-(2-methoxyphenyl)-2-methyl-1,4-dihydropyridine-3-carboxamide] | 41 | 83 | 92 | 98 | 53 | 90 | 16 | 104 | – | –
